Laboratory results: the supplement of paper PMC10307832

What was measured:
Assay in all cases: relative viability (nuclei count vs DMSO), 5 days (fraction); higher = more cells survive
[1] = compound: COc1cccc2cc(-c3nc([C@H]4CC[C@H](C(=O)O)CC4)n4ncnc(N)c34)[nH]c12 [OSI-027] + O=C(c1cc(Cc2n[nH]c(=O)c3ccccc23)ccc1F)N1CCN(C(=O)C2CC2)CC1 [Olaparib] (partner 8 µM)
Outline: (§1)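 Nuclei were stained with Hoechst during a one-step fixation (final 0.05% Triton X-100, 1% formaldehyde, 1 ug/ml Hoechst) carried out 5 days after dosing, then counted on 4× images. The cells, lung cancer lines in 1536-well plates, had been dosed by pin tool the day after seeding with one drug alone or a fixed anchor-drug dose plus five library-drug doses (not always all listed) in √10 steps. Relative viability is the nuclei count in treated wells divided by that in vehicle wells, and each value is the median of duplicate plates.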

[2] = compound: Cc1nc(NC(=O)N2CCC[C@H]2C(N)=O)sc1-c1ccnc(C(C)(C)C(F)(F)F)c1 [Alpelisib] + COc1cc2c(Oc3ccc(NC(=O)C4(C(=O)Nc5ccc(F)cc5)CC4)cc3F)ccnc2cc1OCCCN1CCOCC1 [Foretinib] (partner 0.25 µM)
Outline: as §1

[3] = compound: Cc1nc(NC(=O)N2CCC[C@H]2C(N)=O)sc1-c1ccnc(C(C)(C)C(F)(F)F)c1 [Alpelisib] + C[C@]1(O)C[C@@H](c2nc(-c3ccc4ccc(-c5ccccc5)nc4c3)c3c(N)nccn32)C1 [Linsitinib] (partner 1 µM)
Outline: as §1

[4] = compound: Cc1nc(NC(=O)N2CCC[C@H]2C(N)=O)sc1-c1ccnc(C(C)(C)C(F)(F)F)c1 [Alpelisib] + NC(=O)Nc1cc(-c2cccc(F)c2)sc1C(=O)N[C@H]1CCCNC1 [AZD7762] (partner 0.2 µM)
Outline: as §1

Row | Cell Line | relative viability ([1]; first compound 0.01 µM) | relative viability ([1]; first compound 0.03162 µM) | relative viability ([1]; first compound 0.1 µM) | relative viability ([1]; first compound 0.3162 µM) | relative viability ([1]; first compound 1 µM) | relative viability ([2]; first compound 0.04 µM) | relative viability ([2]; first compound 0.1265 µM) | relative viability ([2]; first compound 0.4 µM) | relative viability ([2]; first compound 1.265 µM) | relative viability ([2]; first compound 4 µM) | relative viability ([3]; first compound 0.04 µM) | relative viability ([3]; first compound 0.1265 µM) | relative viability ([3]; first compound 0.4 µM) | relative viability ([3]; first compound 1.265 µM) | relative viability ([3]; first compound 4 µM) | relative viability ([4]; first compound 0.04 µM) | relative viability ([4]; first compound 0.1265 µM) | relative viability ([4]; first compound 0.4 µM) | relative viability ([4]; first compound 1.265 µM) | relative viability ([4]; first compound 4 µM)
1 | IA-LM | 0.898 | 0.776 | 0.733 | 0.485 | 0.212 | 1.03 | 1.31 | 1.11 | 1.12 | 1.13 | 0.565 | 0.424 | 0.829 | 0.616 | 0.493 |  |  |  |  | 
2 | NCI-H520 | 0.286 | 0.313 | 0.293 | 0.216 | 0.208 | 0.682 | 0.928 | 0.838 | 0.605 | 0.582 | 1.01 | 1.04 | 1.01 | 1.02 | 0.723 |  |  |  |  | 
3 | NCI-H522 | 0.544 | 0.668 | 0.524 | 0.679 | 0.449 |  |  |  |  |  |  |  |  |  |  | 0.791 | 0.987 | 0.729 | 0.702 | 0.678
4 | NCI-H661 | 0.852 | 0.735 | 0.748 | 0.712 | 0.423 | 1.02 | 1.05 | 1.08 | 1.02 | 0.92 | 0.58 | 0.573 | 0.613 | 0.439 | 0.458 |  |  |  |  | 
5 | NCI-H1299 | 1.02 | 0.998 | 0.956 | 1.04 | 0.796 | 1.12 | 1.12 | 1.19 | 0.978 | 1.12 | 0.975 | 0.984 | 1.14 | 0.866 | 0.843 |  |  |  |  | 
6 | NCI-H1563 |  |  |  |  |  | 0.861 | 0.95 | 0.909 | 0.713 | 0.748 | 1.18 | 1.19 | 1.2 | 1.06 | 1.19 |  |  |  |  | 
7 | NCI-H1623 |  |  |  |  |  | 0.833 | 0.744 | 0.845 | 0.54 | 0.494 |  |  |  |  |  |  |  |  |  | 
8 | NCI-H1648 | 1.06 | 0.725 |  | 0.639 | 0.397 |  |  |  |  |  |  |  |  |  |  | 0.581 | 0.591 | 0.821 | 0.62 | 0.521
9 | NCI-H1650 | 0.794 | 0.825 | 0.873 | 0.807 | 0.722 | 1.09 | 1.1 | 1.35 | 0.867 | 1.15 |  |  |  |  |  |  |  |  |  | 
10 | NCI-H1792 | 0.33 | 0.296 | 0.247 | 0.354 | 0.142 |  |  |  |  |  | 0.505 | 0.566 | 0.619 | 0.539 | 0.38 | 0.59 | 0.534 | 0.783 | 0.465 | 0.36
11 | NCI-H2009 | 0.859 | 0.674 | 0.724 | 0.584 | 0.555 | 1.23 | 1.2 | 1.25 | 1.1 | 1.1 | 1.2 | 1.12 | 1.27 | 1.19 | 1.12 |  |  |  |  | 
12 | NCI-H2023 | 0.455 | 0.446 | 0.455 | 0.303 | 0.253 | 0.82 | 0.844 | 0.667 | 0.605 | 0.527 | 0.612 | 0.634 | 0.628 | 0.574 | 0.444 |  |  |  |  | 
13 | NCI-H2170 | 0.664 | 0.592 | 0.604 | 0.525 | 0.346 | 0.978 | 0.914 | 1.12 | 0.922 | 0.622 |  |  |  |  |  | 0.865 | 0.712 | 0.891 | 0.632 | 0.481
14 | NCI-H2228 | 0.952 | 0.644 | 0.562 | 0.474 | 0.226 | 0.82 | 0.927 | 0.701 | 0.613 | 0.404 | 0.762 | 0.496 | 0.564 | 0.517 | 0.287 |  |  |  |  | 
15 | NCI-H2342 | 0.522 | 0.385 | 0.439 | 0.338 | 0.314 | 1.01 | 1.08 | 1.07 | 0.767 | 0.753 |  |  |  |  |  | 0.477 | 0.421 | 0.506 | 0.497 | 0.426
16 | SK-LU-1 | 0.399 | 0.43 | 0.396 | 0.359 | 0.265 | 0.831 | 0.796 | 0.854 | 0.453 | 0.681 | 1.22 | 1.14 | 1.27 | 0.939 | 1.06 |  |  |  |  | 
17 | SK-MES-1 | 0.62 | 0.605 | 0.532 | 0.417 | 0.285 | 0.799 | 0.864 | 0.904 | 0.809 | 0.525 | 1.13 | 1.04 | 1.22 | 0.939 | 0.99 |  |  |  |  | 
18 | SW 900 | 0.953 | 0.819 | 0.931 | 0.823 | 0.519 | 1.22 | 0.991 | 0.79 | 0.885 | 0.843 |  |  |  |  |  | 0.629 |  | 0.545 | 0.546 | 0.519
19 | SW 1573 | 0.485 | 0.513 | 0.398 | 0.444 | 0.293 | 0.854 | 0.713 | 0.823 | 0.696 | 0.724 | 0.919 | 0.826 | 0.725 | 0.685 | 0.547 |  |  |  |  | 
